# Measured values: patent publication US5869477A, “β-methylcarbapenem derivatives, process for the preparation thereof and pharmaceutical composition comprising same” (priority 1995, dated 1999)
# Where two headings read alike, the source gives them in different places.
# Key:
# K. aerogenes 1522 E = assay: agar plate dilution method, MIC; type: cell-based, Klebsiella aerogenes; conditions: about 10^7 CFU/ml, 37° C., 18 hours
# Protocol: (§1) The antibacterial activities of the β-methylcarbapenem compounds of the present invention prepared in the above Examples were determined in accordance with the agar plate dilution method(Hoechst 345). Specifically,about 10^7 CFU/ml of test bacteria(Hoechst standard strains) was inoculated to a Muller-Hinton agar medium containing serial double dilutions of the test compounds, i.e., compounds prepared in Examples 1 to 3, and incubated at 37° C. for 18 hours. Tribactam(EP 416953) and SUN-5555(Santory Co., Japan) were employed as control materials for carbapenem and penem, respectively. When the incubation was completed, the minimum inhibitory concentration of each test compounds was determined.
# E. cloacae 1321 E = assay: agar plate dilution method, MIC; type: cell-based, Enterobacter cloacae; conditions: about 10^7 CFU/ml, 37° C., 18 hours
# Protocol: as §1
# S. pyogenes 308A = assay: agar plate dilution method, MIC; type: cell-based, Streptococcus pyogenes; conditions: about 10^7 CFU/ml, 37° C., 18 hours
# Protocol: as §1
# S. pyogenes 77A = assay: agar plate dilution method, MIC; type: cell-based, Streptococcus pyogenes; conditions: about 10^7 CFU/ml, 37° C., 18 hours
# Protocol: as §1
# P. aeruginosa 1771 M = assay: agar plate dilution method, MIC; type: cell-based, Pseudomonas aeruginosa; conditions: about 10^7 CFU/ml, 37° C., 18 hours
# Protocol: as §1
# P. aeruginosa 1771 = assay: agar plate dilution method, MIC; type: cell-based, Pseudomonas aeruginosa; conditions: about 10^7 CFU/ml, 37° C., 18 hours
# Protocol: as §1
# P. aeruginosa 9027 = assay: agar plate dilution method, MIC; type: cell-based, Pseudomonas aeruginosa; conditions: about 10^7 CFU/ml, 37° C., 18 hours
# Protocol: as §1
# P. aeruginosa 1592 E = assay: agar plate dilution method, MIC; type: cell-based, Pseudomonas aeruginosa; conditions: about 10^7 CFU/ml, 37° C., 18 hours
# Protocol: as §1
# E. coli 1507 E = assay: agar plate dilution method, MIC; type: cell-based; conditions: about 10^7 CFU/ml, 37° C., 18 hours
# Protocol: as §1
# S. aureus SG 511 = assay: agar plate dilution method, MIC; type: cell-based; conditions: about 10^7 CFU/ml, 37° C., 18 hours
# Protocol: as §1
# E. coli DC 0 = assay: agar plate dilution method, MIC; type: cell-based; conditions: about 10^7 CFU/ml, 37° C., 18 hours
# Protocol: as §1
# S. aureus 285 = assay: agar plate dilution method, MIC; type: cell-based; conditions: about 10^7 CFU/ml, 37° C., 18 hours
# Protocol: as §1
# S. typhimurium = assay: agar plate dilution method, MIC; type: cell-based; conditions: about 10^7 CFU/ml, 37° C., 18 hours
# Protocol: as §1
# S. aureus 503 = assay: agar plate dilution method, MIC; type: cell-based; conditions: about 10^7 CFU/ml, 37° C., 18 hours
# Protocol: as §1
# E. coli TEM = assay: agar plate dilution method, MIC; type: cell-based; conditions: about 10^7 CFU/ml, 37° C., 18 hours
# Protocol: as §1
# K. oxytoca 1082 E = assay: agar plate dilution method, MIC; type: cell-based; conditions: about 10^7 CFU/ml, 37° C., 18 hours
# Protocol: as §1
# E. coli 078 = assay: agar plate dilution method, MIC; type: cell-based; conditions: about 10^7 CFU/ml, 37° C., 18 hours
# Protocol: as §1
# S. faecium MD 8b = assay: agar plate dilution method, MIC; type: cell-based, Streptococcus faecium; conditions: about 10^7 CFU/ml, 37° C., 18 hours
# Protocol: as §1
# E. cloacae P 99 = assay: agar plate dilution method, MIC; type: cell-based, Enterobacter cloacae; conditions: about 10^7 CFU/ml, 37° C., 18 hours
# Protocol: as §1
# [1] = bioavailability indices in infected mice, one-compartment oral model; design: species or system I.C.R. mouse; conditions: in vivo; for AUC / p.o./s.c. / Cmax / Tmax / half-life: 40 mg/kg; for pharmacokinetics values and p.o. absorption versus controls (in words) / Cmax / Tmax / half-life: po
# Protocol: The in vivo antibacterial activities and pharmacological activities of the β-methylcarbapenem compounds of the present invention were tested as follows. Specifically, 4 to 5 week-old I.C.R. mouse, each weighing 22 to 25 g and infected with Streptococcus pyogenes 77A, were administered per os with the solutions of the compounds of Examples 5 and 9 dissolved in 10% DMSO, at a dosage of 40 mg/kg body weight. The bioavailability indices, e.g., Cmax, Tmax, t1/2, AUC and p.o./s.c. were determined in accordance with one-compartment oral model method(Drug Metabolism Reviews, 17, 331-348(1986)). The one-compartment oral model was prepared by curve fitting using Gauss-Newto method and calculation using PKCALC computer program.
p.o./s.c. ([1]; mouse) [%],half-life ([1]; mouse) [min],Compound,minimum inhibitory concentration (K. aerogenes 1522 E),minimum inhibitory concentration (E. cloacae 1321 E),minimum inhibitory concentration (S. pyogenes 308A),minimum inhibitory concentration (S. pyogenes 77A),minimum inhibitory concentration (P. aeruginosa 1771 M),minimum inhibitory concentration (P. aeruginosa 1771),minimum inhibitory concentration (P. aeruginosa 9027),minimum inhibitory concentration (P. aeruginosa 1592 E),minimum inhibitory concentration (E. coli 1507 E),minimum inhibitory concentration (S. aureus SG 511),minimum inhibitory concentration (E. coli DC 0),minimum inhibitory concentration (S. aureus 285),minimum inhibitory concentration (S. typhimurium),minimum inhibitory concentration (S. aureus 503),minimum inhibitory concentration (E. coli TEM),minimum inhibitory concentration (K. oxytoca 1082 E),minimum inhibitory concentration (E. coli 078),minimum inhibitory concentration (S. faecium MD 8b),other results
–,–,"CC(C)[C@@H](O)C1=C(C(=O)O)N2C(=O)[C@H]([C@@H](C)O)[C@H]2[C@H]1C [Example 1, potassium (1S, 5R, 6S)-2-[(1R)-1-hydroxy-2-methylpropyl]-6-[(1R)-1-hydroxyethyl]-1-methyl-2-carbapenem-3-carboxylate]",0.391,0.098,0.013,0.013,0.781,100,> 100,> 100,0.049,0.098,0.195,0.098,0.098,0.098,0.195,1.563,0.049,3.125,–
–,–,"C[C@@H](O)[C@H]1C(=O)N2C(C(=O)O)=C([C@H](O)C3CC3)[C@H](C)[C@H]12 [Example 2, potassium (1S, 5R, 6S)-2-[(R)-(cyclopropyl) hydroxymethyl]-6-[(1R)-1-hydroxyethyl]-1-methyl-2-carbapenem-3-carboxylate]",0.195,0.098,0.007,0.007,1.563,100.0,100.0,100.0,0.049,0.049,0.098,0.049,0.098,0.049,0.098,0.781,0.098,0.781,–
–,–,"C[C@@H](O)[C@H]1C(=O)N2C(C(=O)O)=C([C@H](O)C3CCCC3)[C@H](C)[C@H]12 [Example 3, potassium (1S, 5R, 6S)-2-[(R)-(cyclopentyl)hydroxymethyl]-6-[(1R)-1-hydroxyethyl]-1-methyl-2-carbapenem-3-carboxylate]",0.781,0.391,0.004,0.007,1.563,> 100.0,> 100.0,> 100.0,0.098,0.098,–,0.098,0.098,0.098,0.391,1.563,0.195,0.781,minimum inhibitory concentration (E. cloacae P 99): 6.250
32.50,16.2,"Cc1oc(=O)oc1COC(=O)C1=C([C@H](O)C(C)C)[C@H](C)[C@@H]2[C@@H]([C@@H](C)O)C(=O)N12 [Example 5, (5-methyl-2-oxo-1,3-dioxolen-4-yl)methyl (1S, 5R, 6S)-2-[(1R)-1-hydroxy-2-methylpropyl]-6-[(1R)-1-hydroxyethyl]-1-methyl-2-carbapenem-3-carboxylate]",–,–,–,–,–,–,–,–,–,–,–,–,–,–,–,–,–,–,AUC ([1]; mouse): 3.80; pharmacokinetics values and p.o. absorption versus controls (in words) ([1]; mouse): superior pharmacokinetics values and p.o. absorption over the controls; Cmax ([1]; mouse): 8770 ng/mL; Tmax ([1]; mouse): 10.2 min
32.42,19.8,"CC(C)OC(=O)OC(C)OC(=O)C1=C([C@H](O)C(C)C)[C@H](C)[C@@H]2[C@@H]([C@@H](C)O)C(=O)N12 (stereo partly drawn) [Example 9, isopropyloxycarbonyloxy-1-ethyl (1S, 5R, 6S)-2-[(1R)-1-hydroxy-2-methylpropyl]-6-[(1R)-1-hydroxyethyl]-1-methyl-2-carbapenem-3-carboxylate]",–,–,–,–,–,–,–,–,–,–,–,–,–,–,–,–,–,–,AUC ([1]; mouse): 6.78; pharmacokinetics values and p.o. absorption versus controls (in words) ([1]; mouse): superior pharmacokinetics values and p.o. absorption over the controls; Cmax ([1]; mouse): 10400 ng/mL; Tmax ([1]; mouse): 19.8 min

Compound,p.o./s.c. ([1]; mouse) [%],half-life ([1]; mouse) [min],minimum inhibitory concentration (K. aerogenes 1522 E),minimum inhibitory concentration (E. cloacae 1321 E),minimum inhibitory concentration (S. pyogenes 308A),minimum inhibitory concentration (S. pyogenes 77A),minimum inhibitory concentration (P. aeruginosa 1771 M),minimum inhibitory concentration (P. aeruginosa 1771),minimum inhibitory concentration (P. aeruginosa 9027),minimum inhibitory concentration (P. aeruginosa 1592 E),minimum inhibitory concentration (E. coli 1507 E),minimum inhibitory concentration (S. aureus SG 511),minimum inhibitory concentration (E. coli DC 0),minimum inhibitory concentration (S. aureus 285),minimum inhibitory concentration (S. typhimurium),minimum inhibitory concentration (S. aureus 503),minimum inhibitory concentration (E. coli TEM),minimum inhibitory concentration (K. oxytoca 1082 E),minimum inhibitory concentration (E. coli 078),minimum inhibitory concentration (S. faecium MD 8b),other results
"C[C@@H](O)[C@H]1C(=O)N2C(C(=O)O)=C([C@H]3CCCO3)S[C@H]12 [SUN-5555, reference compound]",22.71,22.8,0.391,0.391,0.013,0.007,3.125,> 100.0,> 100.0,> 100.0,0.195,0.098,0.781,0.098,0.195,0.098,0.391,0.391,0.195,6.250,"minimum inhibitory concentration (E. cloacae P 99): 1.563; Cmax ([1]; I.C.R. mouse infected with S. pyogenes 77A, per os, 10% DMSO, read-out: Cmax): 2640 ng/mL; Tmax ([1]; I.C.R. mouse infected with S. pyogenes 77A, per os, 10% DMSO, read-out: Tmax): 25.2 min"
